Data set [1] relates to wheat (var: Norin No. 61). Put plainly: Phytotoxicity to crop plants (Experiment 9), wheat. The class given is in vivo. On the set-up: key: -: No abnormality; +: Abnormality due to phytotoxicity observed in a part of crop plants; ++: Abnormality due to phytotoxicity observed in entire crop plants; +++: Crop plants withered due to phytotoxicity. The text has this:
(§1) Phytotoxicity to crop plants:-

In the next data set the test system is apple (var: Kogyoku). Description: Phytotoxicity to crop plants (Experiment 9), apple. The class given is in vivo. On the set-up: key: -: No abnormality; +: Abnormality due to phytotoxicity observed in a part of crop plants; ++: Abnormality due to phytotoxicity observed in entire crop plants; +++: Crop plants withered due to phytotoxicity.
From the text: as §1

The next data set relates to Pyricularia oryzae. It counts as in vivo.
In data set [2] the test system is drug-resistant strain of Mycosphaerella melonis. The conditions noted are these: cucumber seedlings, spray, 200 ppm active ingredient, 25°C for 4 days.
Procedure: (§2) The disease severity was calculated according to the following equation: [formula]
(§3) The prevention value was calculated according to the following equation: [formula]
(§4) Preventive effect on gummy stem blight of cucumber (Mycosphaerella melonis):-Plastic pots of 90 ml volume was filled with sandy soil, and seeds of cucumber (var: Sagami-hanjiro) were sowed therein. Cultivation was carried out in a greenhouse for 8 days to obtain cucumber seedlings expanding cotyledons. Onto the resulting seedlings, the test compound formulated in emulsifiable concentrate or wettable powder and diluted with water was sprayed at a rate of 10 ml per pot. […] After the plants were infected by incubating under high humidity at 25°C for 4 days, the rates of disease severity were observed.
Data set [3] relates to drug-sensitive strain of Botrytis cinerea. Description: Preventive effect on gray mold of cucumber (Experiment 5), drug-sensitive strain. The conditions noted are these: cucumber seedlings, spray, mycelial disks, 20°C for 3 days.
Procedure: as §2, §3
(§5) Preventive effect on gray mold of cucumber (Botrytis cinerea):-Plastic pots of 90 ml volume was filled with sandy soil, and seeds of cucumber (var: Sagami-hanjiro) were sowed therein. Cultivation was carried out in a greenhouse for 8 days to obtain cucumber seedlings expanding cotyledons. Onto the resulting seedlings, the test compound formulated in emulsifiable concentrate or wettable powder and diluted with water was sprayed at a rate of 10 ml per pot. […] After the plants were infected by incubating under high humidity at 20°C for 3 days, the rates of disease severity were observed.
The test system of data set [4] is drug-sensitive strain of Cercospora arachidicola. The conditions noted are these: peanut seedlings, spray, 10 days.
Procedure: as §2, §3
(§6) Preventive effect on brown leaf-spot of peanut (Cercospora arachidicola):-
(§7) A plastic pot of 90 ml volume was filled with sandy soil, and seeds of peanut (var: Chiba hanryusei) were sowed therein. Cultivation was carried out in a greenhouse for 14 days. Onto the resulting seedlings, the test compound formulated in emulsifiable concentrate or wettable powder and diluted with water was sprayed at a rate of 10 ml per pot. […] The resulting plants were covered with a polyvinyl chloride sheet to make a humide condition and cultivated in the greenhouse for 10 days.
Data set [5] deals with drug-resistant strain of Cercospora arachidicola. Conditions: peanut seedlings, spray, 10 days.
Procedure: as §2, §3, §6, §7
In data set [6] the test system is drug-sensitive strain of Mycosphaerella melonis. Conditions: cucumber seedlings, spray, 200 ppm active ingredient, 25°C for 4 days.
Procedure: as §2, §3, §4
In data set [7] the test system is drug-resistant strain of Botrytis cinerea. Put plainly: Preventive effect on gray mold of cucumber (Experiment 5), drug-resistant strain. The conditions noted are these: cucumber seedlings, spray, mycelial disks, 20°C for 3 days.
Procedure: as §2, §3, §5
For data set [8], the system named is peanut (var: Chiba hanryusei). Description: Phytotoxicity to crop plants (Experiment 9), peanut. The arrangement: key: -: No abnormality; +: Abnormality due to phytotoxicity observed in a part of crop plants; ++: Abnormality due to phytotoxicity observed in entire crop plants; +++: Crop plants withered due to phytotoxicity. It counts as in vivo. The conditions noted are these: spray, 1000 ppm active ingredient, 10 days.
From the text: as §1

For data set [9], the system named is drug-sensitive strain of Cercospora beticola. The conditions noted are these: in Beta vulgaris, 240 h, read-out: Prevention value when inoculated with drug-sensitive strain (%).
Procedure: as §2, §3
(§8) Preventive effect on cercospora leaf spot of sugarbeet (Cercospora beticola):-A flower pot of 90 ml volume was filled with sandy soil, and seeds of sugarbeet (var: Detroit dark red) were sowed therein. Cultivation was carried out in a greenhouse for 20 days. Onto the resulting seedlings, the test compound formulated in emulsifiable concentrate or wettable powder and diluted with water was sprayed at a rate of 10 ml per pot. […] The pot was covered with a polyvinyl chloride sheet to make a condition of high humidity, and cultivation was continued in the greenhouse for 10 days.
The subject of data set [10] is drug-resistant strain of Cercospora beticola. Conditions: in Beta vulgaris, 240 h, read-out: Prevention value when inoculated with drug-resistant strain (%).
Procedure: as §2, §3, §8
Data set [11] relates to drug-resistant strain of Sphaerotheca fuliginea. Conditions: Podosphaera fuliginea, in Cucumis sativus, 240 h, read-out: Prevention value when inoculated with drug-resistant strain (%).
Procedure: (§9) Protective activity test on powdery mildew of cucumber (Sphaerotheca fuliginea):-A flower pot of 90 ml volume was filed with sandy soil, and seeds of cucumber (var: Sagami-hanjiro) were sowed therein. Cultivation was carried out in a greenhouse for 8 days. Onto the resulting seedlings having cotyledons, the test compound formulated in emulsifiable concentrate or wettable powder and diluted with water was sprayed at a rate of 10 ml per pot. […] Ten days thereafter, the infectious state of the plants was observed.
as §2, §3
Data set [12] concerns drug-sensitive strain of Sphaerotheca fuliginea. The conditions noted are these: Podosphaera fuliginea, in Cucumis sativus, 240 h, read-out: Prevention value when inoculated with drug-sensitive strain (%).
Procedure: as §9, §2, §3
For data set [13], the system named is drug-sensitive strain of Penicillium italicum. Put plainly: Preventive effect on green mold of orange (Experiment 7), drug-sensitive strain. Conditions: orange fruits immersed for 1 minute, 200 ppm active ingredient, 24 days.
The test system of data set [14] is drug-sensitive strain of Venturia nashicola. Put plainly: Preventive effect on scab of pear (Experiment 3), drug-sensitive strain. Conditions: pear seedlings, spray, 200 ppm active ingredient.
Procedure: as §2, §3
(§10) Preventive effect on scab of pear (Venturia nashicola):-
(§11) A plastic pot of 90 ml volume was filled with sandy soil, and seeds of pear (var: Chojuro) were sowed therein. Cultivation was carried out in a greenhouse for 20 days. Onto the resulting seedlings, the test compound formulated in emulsifiable concentrate or wettable powder and diluted with water was sprayed at a rate of 10 ml per pot. […] The resulting plants were placed at 20°C under a condition of high humidity for 3 days and then at 20°C under irradiation with a fluorescent lamp for 20 days.
In data set [15] the test system is drug-resistant strain of Venturia nashicola. Put plainly: Preventive effect on scab of pear (Experiment 3), drug-resistant strain. Conditions: pear seedlings, spray, 200 ppm active ingredient.
Procedure: as §2, §3, §10, §11
The subject of data set [16] is drug-resistant strain of Penicillium italicum. Put plainly: Preventive effect on green mold of orange (Experiment 7), drug-resistant strain. Conditions: orange fruits immersed for 1 minute, 200 ppm active ingredient, 24 days.
Where [17] appears, read: spray, 1000 ppm active ingredient, 10 days.

Experimental findings from patent EP0104070A2, “Fungicidal N-phenylcarbamates” (priority 1982, dated 1984) are described below.

Molecules are shown by their SMILES. Read-outs that look alike come from different tables or passages of the source.

Consider `CCOc1c(Cl)cc(NC(=S)OC)cc1COC` [Compound No. 13], for which the “Phytotoxicity Wheat” value in data set [1] (setting [17]) is “-”. The “Phytotoxicity Apple” value with apple (var: Kogyoku) (setting [17]) is recorded as “-”. Further, the “Prevention value (%)” value in the data set on Pyricularia oryzae (rice seedlings of 3-leaf stage, spray, 1000 ppm active ingredient, 28°C for 3 days) turned out to be 97%. The “Prevention value when inoculated with drug-resistant strain (%)” value was determined as 100% in [2], 97% in data set [5] (200 ppm active ingredient) and 100% in data set [7] (200 ppm active ingredient). Also, the “Prevention value when inoculated with drug-sensitive strain (%)” value in [3] (200 ppm active ingredient), in data set [4] (200 ppm active ingredient) and in data set [6] was 0% throughout. For the same compound, the “Phytotoxicity Peanut” value in data set [8] is on record as “-”.
Take `CCOP(=O)(Sc1ccccc1)Sc1ccccc1` [Edifenphos]: the “Prevention value (%)” value in the data set with Pyricularia oryzae (in vivo) is on record as 97%.
For `O=C(Nc1cccc(Cl)c1)OCC#CCCl`, in [1] (in vivo), the “Phytotoxicity Wheat” value is recorded as “-”. Also, the “Phytotoxicity Apple” value in the data set with apple (var: Kogyoku) (in vivo) is given as “++”. For the same compound, the pest or weed control at 200 ppm in data set [9] is 0%; in data set [10] it was 34%; in data set [11], 25%; in data set [12] it was 0%. Moreover, in data set [8], the “Phytotoxicity Peanut” value was “++”.
For the compound `COC(=O)NC(=S)Nc1ccccc1NC(=S)NC(=O)OC` [Thiophanate-methyl, 1,2-bis(3-methoxycarbonyl-2-thioureido)benzene], the “Prevention value when inoculated with drug-sensitive strain (%)” value in [13], in [3] (200 ppm active ingredient), in data set [14], in [4] (200 ppm active ingredient) and in data set [6] was 100% in each case. Further, the “Prevention value when inoculated with drug-resistant strain (%)” value in data set [2], in data set [15], in data set [5] (200 ppm active ingredient), in data set [7] (200 ppm active ingredient) and in data set [16] was 0% each time. Besides, the pest or weed control at 200 ppm in [9] amounted to 100%; in [10], 0%; in data set [11] it was 0%; in data set [12], 100%.
On to `CC(C)OC(=O)Nc1cccc(Cl)c1` [Chlorpropham, isopropyl N-(3-chlorophenyl)carbamate], for which the pest or weed control at 200 ppm in data set [9], in [10], in data set [11] and in data set [12] was 0% each time.
Turning to `C=CCOC(=O)c1cc(NC(=S)OC)cc(COC)c1OCC` [Compound No. 25, (3-methoxymethyl-4-ethoxy-5-allyloxycarbonyl)thiocarbanilic acid O-methyl ester], the “Prevention value when inoculated with drug-sensitive strain (%)” value in [3] (500 ppm active ingredient) is reported as 0%. Further, the “Prevention value when inoculated with drug-resistant strain (%)” value in [7] (500 ppm active ingredient) is recorded as 100%.
For `CCCCNC(=O)n1c(NC(=O)OC)nc2ccccc21` [Benomyl, methyl 1-(butylcarbamoyl)benzimidazol-2-ylcarba-mate], the “Prevention value when inoculated with drug-sensitive strain (%)” value in data set [13], in data set [3] (200 ppm active ingredient), in [14], in data set [4] (200 ppm active ingredient) and in data set [6] was 100% throughout. Besides, the “Prevention value when inoculated with drug-resistant strain (%)” value in data set [2], in [15], in data set [5] (200 ppm active ingredient), in [7] (200 ppm active ingredient) and in data set [16] was 0% throughout. In addition, the pest or weed control at 200 ppm in data set [9] came out at 100%; in [10], 0%; in data set [11] it was 0%; in data set [12] it was 100%.
Consider `CCOc1c(C)cc(NC(=S)OCCF)cc1C` [Compound No. 9], for which the “Phytotoxicity Wheat” value in data set [1] (setting [17]) is reported as “-”. Besides, the “Phytotoxicity Apple” value in the data set with apple (var: Kogyoku) (setting [17]) is on record as “-”. The “Prevention value when inoculated with drug-sensitive strain (%)” value in data set [13], in [3] (200 ppm active ingredient), in data set [4] (500 ppm active ingredient) and in [6] was 0% throughout. In addition, the “Prevention value when inoculated with drug-resistant strain (%)” value in data set [2] is listed as 94%; in data set [5] (500 ppm active ingredient), 100%; in [7] (200 ppm active ingredient) it was 100%; in data set [16], 94%. For the same compound, the pest or weed control at 200 ppm in data set [9] worked out at 0%; in data set [10], 100%; in data set [11] it was 100%; in data set [12] it was 0%. Besides, the “Phytotoxicity Peanut” value in [8] is given as “-”.
Take `O=C(Nc1cccc(Cl)c1)OCCCl` [CEPC]: the “Phytotoxicity Wheat” value in data set [1] (setting [17]) was “-”. Moreover, the “Phytotoxicity Apple” value with apple (var: Kogyoku) (setting [17]) is “++”. For the same compound, the pest or weed control at 200 ppm in data set [9], in [10], in [11] and in data set [12] was 0% in each case. In addition, the “Phytotoxicity Peanut” value in [8] is given as “++”.
Consider `CCOc1c(Cl)cc(NC(=S)OC(C)C)cc1COC` [Compound No. 14, (3-chloro-4-ethoxy-5-methoxymethyl)thiocarbanilic acid O-isopropyl ester], for which the “Phytotoxicity Wheat” value in data set [1] (setting [17]) was “-”. Besides, the “Phytotoxicity Apple” value in the data set with apple (var: Kogyoku) (setting [17]) is on record as “-”. Moreover, the “Prevention value when inoculated with drug-resistant strain (%)” value in [2] and in data set [7] (200 ppm active ingredient) was 100% throughout. For the same compound, the “Prevention value when inoculated with drug-sensitive strain (%)” value in data set [3] (200 ppm active ingredient) and in data set [6] was 0% throughout. The pest or weed control at 500 ppm is 0% in data set [9] and 100% in [10]. The pest or weed control at 200 ppm amounted to 100% in data set [11] and 0% in data set [12]. Besides, the “Phytotoxicity Peanut” value in data set [8] is reported as “-”.
On to `c1ccc2[nH]c(-c3cscn3)nc2c1` [Thiabendazole, 2-(4-thiazolyl)benzimidazole], for which the “Prevention value when inoculated with drug-sensitive strain (%)” value in [3] (200 ppm active ingredient) came out at 100%. The “Prevention value when inoculated with drug-resistant strain (%)” value in [7] (200 ppm active ingredient) came to 0%.
For the compound `CCOc1cc(NC(=S)OC)cc(C=NOC)c1OCC` [Compound No. 29, (3,4-diethoxy-5-methoxyiminomethyl)thiocarbanilic acid O-methyl ester], the “Prevention value when inoculated with drug-sensitive strain (%)” value in data set [3] (500 ppm active ingredient) is recorded as 0%. In [7] (500 ppm active ingredient), the “Prevention value when inoculated with drug-resistant strain (%)” value was 100%.
In the case of `C#CC(C)OC(=O)Nc1cccc(Cl)c1` (centres unmarked) [Chlorbufam, 1-methyl-2-propynyl N-(3-chlorophenyl)carbamate], the pest or weed control at 200 ppm in [9], in data set [10], in data set [11] and in data set [12] was 0% each time.
As for `COC(=O)Nc1ccc(Cl)c(Cl)c1` [Swep], the “Phytotoxicity Wheat” value in data set [1] (setting [17]) is recorded as “++”. For the same compound, the “Phytotoxicity Apple” value with apple (var: Kogyoku) (setting [17]) was “++”. Further, the “Phytotoxicity Peanut” value in [8] was “+”.
As to `COC(=O)Nc1nc2ccccc2[nH]1` [Carbendazim, methyl benz-imidazol-2-ylcarbamate], the pest or weed control at 200 ppm in [9] was 100%; in data set [10], 0%; in data set [11], 0%; in [12], 100%.
On to `CC(C)OC(=O)Nc1ccccc1` [Propham, isopropyl N-phenylcarbamate], for which the pest or weed control at 200 ppm in data set [9], in data set [10], in [11] and in data set [12] was 0% each time.
